Data from the NIST ThermoML archive (doi:10.1021/je100603q).
± gives the expanded uncertainty stated by the source.

Columns and labels:
[1] = molar enthalpy of vaporization or sublimation; details: 298.15 K; Crystal; Microcalorimetry
[2] = molar enthalpy of transition or fusion; details: 298.15 K; Crystal; Microcalorimetry

Compound	molar enthalpy [1]	molar enthalpy of transition or fusion [2]
O=C1CCSCC1 [tetrahydro-4H-thiopyran-4-one]	17.5 ± 0.669 kcal/mol	
O=c1c2ccccc2sc2ccccc12 [thioxanthone]		25.5 ± 0.574 kcal/mol
